The source of these data is patent US9018260B2, “Indanesulfamide derivatives” (Eisai R&D Management Co., Ltd., priority 2012, dated 2015).

In data set [1] the test system is corneal kindled male C57Bl/6 mice. In words: Mouse corneal kindling model. The format is in vivo. The settings on record: for Seizure severity score (Average): Racine's scale. The text has this: Male C57Bl/6 mice were stimulated twice daily for 10 days. The electric-stimulations with current intensities of 4.0 mA and duration of 3 s (pulse frequency 50 Hz) were applied via corneally placed saline-soaked copper electrodes.
Seizure severity was ranked according to a modified scoring system of the Racine's scale (Clin. Neurophysiol. 1972:32:281-294): Score 1, mild facial clonus and eye blinking; 2, severe facial clonus, head nodding, chewing; 3, unilateral or alternating forelimb clonus; 4, bilateral forelimb clonus with rearing; 5, bilateral forelimb clonus with rearing and falling; 6, tonic fore- and/or hindlimb extension. The fully kindled animals with the severity score 4 or more were used for evaluation.
Test compounds were dissolved in the vehicle (0.45% methyl cellulose/4.5% cremophor/10% DMSO), then orally (p.o.) or intraperitoneally (i.p.) administered to mice. The vehicle was orally administered as controls.
Electric stimulation was applied at 1 hour after p.o. or 20 minutes after i.p administration. Stimulation parameters were the same as during the kindling process. After electric stimulation, seizure severity was recorded for 30 seconds according to the Racine's scale.
Four to ten animals were used for calculation of average seizure severity score at each dose.

The next data set concerns male ddY mice. In words: Rota rod test. The settings on record: route p.o.; TD50 in rota rod test divided by ED50 in corneal kindling model. The format is in vivo, mouse. The method, then: (§1) Rotarod apparatus (Rota-rod MK-660C, Muromachi-Kikai Co., Ltd.) was used for measurement. The motor was turned on and the rod rotation was continuously accelerated to a rate of 40 rpm over 180 sec.
(§2) Male ddY mice at an age of 5 weeks (Japan SLC) were used. On the experiment day, the mice were pretrained and only the animals able to remain on the rod for at least 60 s were selected for experiment.
(§3) Test compounds were dissolved in the vehicle (0.45% methyl cellulose/4.5% cremophor/10% dimethyl sulfoxide), then orally (p.o.) administered to mice. The vehicle was orally administered as controls. The effects of compounds were studied in groups of six to ten animals.
(§4) Latency for mice to fall off from the rod was measured. The toxic dose at which fall off latency shorten by 50% of vehicle control value (TD50) was calculated.
(§5) Therapeutic index were calculated by dividing the respective TD50 value in rota rod test by the ED50 value determined in the corneal kindling model.
Background: The rotarod test checks motor coordination on a turning rod.

A short description of a further data set: Rota rod test. Format: in vivo, mouse. Conditions: male, ddY, mouse, in vivo, po; dose at which fall off latency shorten by 50% of vehicle control value. The method, then:
as §1, §2, §3, §4, §5

Where [2] appears, read: dose 25 mg/kg, p.o., stimulation 1 hour after administration, 25 mg/kg.
Where [3] appears, read: dose 10 mg/kg, p.o., stimulation 1 hour after administration, 10 mg/kg.
[4] abbreviates: dose 25 mg/kg, p.o., stimulation 1 hour after administration.
[5] abbreviates: dose 10 mg/kg, i.p., stimulation 20 minutes after administration.
The mark [6] stands for this setting: dose 25 mg/kg, i.p., stimulation 20 minutes after administration.
Setting [7] is: dose 10 mg/kg, p.o., stimulation 1 hour after administration.
Setting [8] is: dose 50 mg/kg, p.o., stimulation 1 hour after administration.

Consider `NS(=O)(=O)N[C@@H]1c2c(Cl)ccc(F)c2C[C@H]1F` (relative stereo) [Example 16a, (−)-N-[(1R*,2R*)-7-chloro-2,4-difluoro-2,3-dihydro-1H-inden-1-yl]sulfamide], for which, in data set [1] (setting [2]), the “Seizure severity score (Average)” value was 0.

For the compound `Cc1cc(C#N)cc2c1[C@@H](NS(N)(=O)=O)CC2` [Example 25b, (−)-N-(5-cyano-7-methyl-2,3-dihydro-1H-inden-1-yl)sulfamide], the “Seizure severity score (Average)” value in data set [1] (setting [3]) was 1; in data set [1] (setting [4]), 0.

As for `NS(=O)(=O)NC1CCc2c(F)ccc(Cl)c21` (single isomer, unassigned; (+)) [Example 20, (+)-N-(7-chloro-4-fluoro-2,3-dihydro-1H-inden-1-yl)sulfamide], the “Seizure severity score (Average)” value in data set [1] (setting [5]) is 3.25; in data set [1] (setting [6]) it was 0.

`NS(=O)(=O)N[C@H]1c2c(F)ccc(F)c2CC1(F)F` [Example 2, N-[(1S)-2,2,4,7-tetrafluoro-2,3-dihydro-1H-inden-1-yl]sulfamide] had a Therapeutic index with male ddY mice of more than 13.0. The compound also came in with a TD50 in the data set “Rota rod test” of more than 200 mg/kg. Also, the ED50 in data set [1] (Mus musculus, po, dosage where 50% of animals showed seizure severity score 2 or less) came to 15.4 mg/kg. The “Seizure severity score (Average)” value was 4 in data set [1] (setting [7]), 0 in data set [1] (setting [4]) and 0 in data set [1] (setting [8]).

For the compound `NS(=O)(=O)N[C@@H]1c2c(F)ccc(F)c2C[C@H]1F` (relative stereo) [Example 15, N-[(1R*,2R*)-2,4,7-trifluoro-2,3-dihydro-1H-inden-1-yl]sulfamide], the “Seizure severity score (Average)” value is listed as 3 in data set [1] (setting [7]) and 0 in data set [1] (setting [4]).

As for `NS(=O)(=O)NC1c2c(ccc(F)c2Cl)CC1(F)F` (single isomer, unassigned; (-)) [Example 9, (−)-N-(7-chloro-2,2,6-trifluoro-2,3-dihydro-1H-inden-1-yl)sulfamide], the “Seizure severity score (Average)” value in data set [1] (setting [4]) and in data set [1] (setting [8]) was 0 throughout.

Turning to `Cc1cc(C#N)cc2c1C(NS(N)(=O)=O)CC2` (single isomer, unassigned) [Example 25a, (+)-N-(5-cyano-7-methyl-2,3-dihydro-1H-inden-1-yl)sulfamide], the “Seizure severity score (Average)” value was 1.75 in data set [1] (setting [3]) and 0 in data set [1] (setting [4]).

In the case of `NS(=O)(=O)NC1c2c(F)cc(Cl)cc2CC1(F)F` (single isomer, unassigned; (+)) [Example 10, (+)-N-(5-chloro-2,2,7-trifluoro-2,3-dihydro-1H-inden-1-yl)sulfamide], the “Seizure severity score (Average)” value in data set [1] (setting [7]) and in data set [1] (setting [4]) was 0 each time.

Turning to `NS(=O)(=O)NC1CCc2c(Cl)ccc(F)c21` (single isomer, unassigned; (-)) [Example 31, (−)-N-(4-chloro-7-fluoro-2,3-dihydro-1H-inden-1-yl)sulfamide], the “Seizure severity score (Average)” value is reported as 1.5 in data set [1] (setting [7]) and 0 in data set [1] (setting [4]).

For `NS(=O)(=O)NC1c2c(F)c(F)cc(F)c2CC1(F)F` (single isomer, unassigned; (+)) [Example 3, (+)-N-(2,2,4,6,7-pentafluoro-2,3-dihydro-1H-inden-1-yl)sulfamide], the “Seizure severity score (Average)” value is on record as 1.5 in data set [1] (setting [7]) and 0 in data set [1] (setting [4]).

With `NS(=O)(=O)N[C@H]1CCc2cccc(Cl)c21` (single isomer, unassigned) [Example 24, (+)-N-(7-chloro-2,3-dihydro-1H-inden-1-yl)sulfamide], the “Seizure severity score (Average)” value was determined as 3 in data set [1] (setting [7]) and 0 in data set [1] (setting [4]).

As for `NS(=O)(=O)NC1c2c(cccc2C(F)F)CC1(F)F` (single isomer, unassigned) [Example 14, N-[(1S*)-7-(difluoromethyl)-2,2-difluoro-2,3-dihydro-1H-inden-1-yl]sulfamide], the “Seizure severity score (Average)” value in data set [1] (setting [4]) came out at 0.

Take `NS(=O)(=O)N[C@@H]1c2c(Cl)ccc(F)c2C[C@H]1F` (relative stereo) [Example 16b, (+)-N-[(1R*,2R*)-7-chloro-2,4-difluoro-2,3-dihydro-1H-inden-1-yl]sulfamide]: the results for the “Seizure severity score (Average)” value in data set [1] (setting [7]) and in data set [1] (setting [2]) were 3.75 and 0.5, respectively.

`Cc1ccc(F)c2c1[C@@H](NS(N)(=O)=O)CC2` [Example 28b, (−)-N-(4-fluoro-7-methyl-2,3-dihydro-1H-inden-1-yl)sulfamide]: the “Seizure severity score (Average)” value in data set [1] (setting [3]) came out at 3.75; in data set [1] (setting [4]) it was 0.

For the compound `N#Cc1cc(Cl)c2c(c1)CC[C@H]2NS(N)(=O)=O` (single isomer, unassigned) [Example 22b, (−)-N-(7-chloro-5-cyano-2,3-dihydro-1H-inden-1-yl)sulfamide], the “Seizure severity score (Average)” value in data set [1] (setting [7]) was determined as 3; in data set [1] (setting [2]), 0.

In the case of `Cc1ccc(F)c2c1C(NS(N)(=O)=O)C(F)(F)C2` (single isomer, unassigned) [Example 13, N-[(1S*)-2,2,4-trifluoro-7-methyl-2,3-dihydro-1H-inden-1-yl]sulfamide], in data set [1] (setting [7]), the “Seizure severity score (Average)” value came out at 0.

As to `NS(=O)(=O)NC1CCc2cc(Cl)cc(F)c21` (single isomer, unassigned; (-)) [Example 23, (−)-N-(5-chloro-7-fluoro-2,3-dihydro-1H-inden-1-yl)sulfamide], the “Seizure severity score (Average)” value in data set [1] (setting [7]) was found to be 4.25; in data set [1] (setting [4]), 0.

As to `Cc1cc(Cl)cc2c1C(NS(N)(=O)=O)CC2` (racemic) [Example 30, (±)-N-(5-chloro-7-methyl-2,3-dihydro-1H-inden-1-yl)sulfamide], the “Seizure severity score (Average)” value amounted to 4.25 in data set [1] (setting [7]) and 0.25 in data set [1] (setting [4]).

`N#Cc1cc(Cl)c2c(c1)CC[C@H]2NS(N)(=O)=O` [Example 22a, (+)-N-(7-chloro-5-cyano-2,3-dihydro-1H-inden-1-yl)sulfamide]: the results for the “Seizure severity score (Average)” value in data set [1] (setting [7]) and in data set [1] (setting [2]) were 3 and 0.25, respectively.

For the compound `Cc1ccc(F)c2c1[C@@H](NS(N)(=O)=O)CC2` (single isomer, unassigned) [Example 28a, (+)-N-(4-fluoro-7-methyl-2,3-dihydro-1H-inden-1-yl)sulfamide], the “Seizure severity score (Average)” value in data set [1] (setting [3]) worked out at 4; in data set [1] (setting [4]), 0.

Regarding `Cc1cccc2c1C(NS(N)(=O)=O)CC2` (single isomer, unassigned; (+)) [Example 27, (+)-N-(7-methyl-2,3-dihydro-1H-inden-1-yl)sulfamide], the “Seizure severity score (Average)” value in data set [1] (setting [7]) amounted to 3; in data set [1] (setting [4]) it was 0.

For `CO[C@@H]1Cc2c(Cl)ccc(F)c2[C@H]1NS(N)(=O)=O` (relative stereo) [Example 18, (+)-N-[(1R*,2R*)-4-chloro-7-fluoro-2-methoxy-2,3-dihydro-1H-inden-1-yl]sulfamide], the “Seizure severity score (Average)” value was found to be 2 in data set [1] (setting [7]) and 0 in data set [1] (setting [4]).

As for `NS(=O)(=O)N[C@@H]1c2c(Cl)cc(F)cc2C[C@H]1F` (relative stereo) [Example 17, (−)-N-[(1R*,2R*)-7-chloro-2,5-difluoro-2,3-dihydro-1H-inden-1-yl]sulfamide], the “Seizure severity score (Average)” value is 2 in data set [1] (setting [7]), 0 in data set [1] (setting [4]) and 0 in data set [1] (setting [8]).

Turning to `Cc1cc(C#N)cc2c1C(NS(N)(=O)=O)C(F)(F)C2` (single isomer, unassigned) [Example 4, N-[(1S*)-5-cyano-2,2-difluoro-7-methyl-2,3-dihydro-1H-inden-1-yl]sulfamide], the “Seizure severity score (Average)” value in data set [1] (setting [4]) and in data set [1] (setting [8]) was 0 in each case.

`NS(=O)(=O)NC1c2c(Cl)ccc(F)c2CC1(F)F` (single isomer, unassigned; (-)) [Example 7, (−)-N-(7-chloro-2,2,4-trifluoro-2,3-dihydro-1H-inden-1-yl)sulfamide]: the “Seizure severity score (Average)” value in data set [1] (setting [5]) was 3.5; in data set [1] (setting [6]) it was 0.25.

In the case of `Cc1cc(F)cc2c1C(NS(N)(=O)=O)CC2` (racemic) [Example 26, (±)-N-(5-fluoro-7-methyl-2,3-dihydro-1H-inden-1-yl)sulfamide], the “Seizure severity score (Average)” value in data set [1] (setting [7]) turned out to be 4.25; in data set [1] (setting [4]), 0.

One may read the TD50 as the 50% point of the dose-response relation for the toxic effect studied. A high value points to harm only at a large dose. Usually ED50 stands for the midpoint of the dose-response relation. The low end stands for greater potency, the high end for weaker potency.
